Test results reported in patent US8685992B2, “Histone deacetylase inhibitors based simultaneously on trisubstituted 1H-pyrroles and aromatic and heteroaromatic spacers” (Universidad del País Vasco, priority 2009, dated 2014).
pIC50: −log10 of the molar value.

What was measured:
MCF-7-FL = assay: Cancer cell growth inhibition, MCF-7-FL; format: cell-based; settings: Homo sapiens, Breast Cancer, 72 h treatment
Description: (§1) Cell culture-based assays were used to evaluate the ability of compounds of the invention to inhibit cancer cell growth inhibition.
(§2) Cells were obtained from the American Type Culture Collection (ATCC). Cells were cultured at 37° C. with 5% CO2 in the appropriate growth medium (see table below), and harvested respectively during the logarithmic growth period and counted with hemocytometer. The cell viability was over 98% by trypan blue exclusion. Cell concentrations were adjusted between 5×10^4 and 2×10^5 cells/ml with respective medium.
(§3) Stock solutions of test compounds and positive drugs Doxorubicin (Zhejiang, Haizheng, China), Paclitaxel (Beijing, Xiehe, China), Vincristin (Shenzhen Wanle, China), 5-FU (Tianjin jinyaoanjisuan, China), Irinotecan (Jiangsu Hengrui, China) and Cisplatin Nanjing zhiyao, China) were prepared in dimethyl sulphoxide (DMSO) or PBS at 20 mM.
(§4) All treatments were performed in triplicate. 10 μl drug solution was added to each well and incubated for 72 hours. At the end of the incubation, 20 μl of the freshly prepared MTS/PMS mixture solution was added to each well and incubated for 4 hours at 37° C. in a humidified, 5% CO2 atmosphere. Absorbance was read at 490 nm using SpectraMAX Plus microplate spectrophotometer. […] In order to calculate IC50, a dose-responsive curve was fitted using nonlinear regression model with a sigmoidal dose response.

143b = assay: Cancer cell growth inhibition, 143b; format: cell-based; settings: Homo sapiens, Osteosarcoma, 72 h treatment
Description: as §1, §2, §3, §4

SK-HEP-1 = assay: Cancer cell growth inhibition, SK-HEP-1; format: cell-based; settings: Homo sapiens, SK-HEP1; SK-HEP-1, Liver Cancer, 72 h treatment
Description: as §1, §2, §3, §4

BT474 = assay: Cancer cell growth inhibition, BT474; format: cell-based; settings: Homo sapiens, BT-474; BT474, Breast Cancer, 72 h treatment
Description: as §1, §2, §3, §4

HT-1080 = assay: Cancer cell growth inhibition, HT-1080; format: cell-based; settings: Homo sapiens; HT-1080, Fibrosarcoma, 72 h treatment
Description: as §1, §2, §3, §4

MIAPACA-2 = assay: Cancer cell growth inhibition, MIAPACA-2; format: cell-based, human; settings: MIAPACA-2, Pancreatic Cancer, 72 h treatment
Description: as §1, §2, §3, §4

HepG2 = assay: Cancer cell growth inhibition, HepG2; format: cell-based, human; settings: HepG2, Liver Cancer, 72 h treatment
Description: as §1, §2, §3, §4

HCT-116 = assay: Cancer cell growth inhibition, HCT-116; format: cell-based, human; settings: HCT-116, Colorectal Cancer, 72 h treatment
Description: as §1, §2, §3, §4

Human HDAC1 = Human HDAC1 (Homo sapiens (Human), UniProt Q13547); assay: HDAC1 fluorogenic peptide deacetylation assay; format: biochemical; settings: human HDAC1, 50 μM substrate, 30° C., 2 h; read-out: IC50 (nM) of enzyme activity HDAC1
Human HDAC2 = Human HDAC2 (Homo sapiens (Human), UniProt Q92769); assay: HDAC2 fluorogenic peptide deacetylation assay; format: biochemical; settings: human HDAC2, 50 μM substrate, 30° C., 2 h; read-out: IC50 (nM) of enzyme activity HDAC2
[1] = system: Nuclear Extract from HeLa Cells; assay: HeLa Nuclear Extract HDAC assay; format: biochemical, human; settings: 50 μM substrate, 30° C., 2 h, read-out: IC50 (nM) of enzyme activity HeLa
Human HDAC6 = Human HDAC6 (Homo sapiens (Human), UniProt Q9UBN7); assay: HDAC6 fluorogenic peptide deacetylation assay; format: biochemical; settings: human HDAC6, 50 μM substrate, 30° C., 2 h; read-out: IC50 (nM) of enzyme activity HDAC6
[2] = target: histone deacetylase from rat liver; assay: Rat liver HDAC assay; format: biochemical; settings: Boc-Lys(Ac)-AMC substrate, 30° C., 2 h, read-out: IC50 (nM) of enzyme activity Rat liver
Human HDAC8 = Human HDAC8 (Homo sapiens (Human), UniProt Q9BY41); assay: HDAC8 fluorogenic peptide deacetylation assay; format: biochemical; settings: human HDAC8, 50 μM substrate, 30° C., 2 h; read-out: IC50 (nM) of enzyme activity HDAC8
Human HDAC3/NcoR2 = Human HDAC3/NcoR2 (Homo sapiens (Human), UniProt O15379); assay: HDAC3 fluorogenic peptide deacetylation assay; format: biochemical; settings: human HDAC3/NcoR2, 50 μM substrate, 30° C., 2 h; read-out: IC50 (nM) of enzyme activity HDAC3
Colo205 = assay: Cancer cell growth inhibition, Colo205; format: cell-based; settings: Homo sapiens, COLO 205; Colo205, Colorectal Cancer, 72 h treatment
Description: as §1, §2, §3, §4

MCF-7-218 = assay: Cancer cell growth inhibition, MCF-7-218; format: cell-based; settings: Homo sapiens; MCF-7-218, Breast Cancer, 72 h treatment
Description: as §1, §2, §3, §4

Sequence of Human HDAC3/NcoR2 (O15379 whole entry): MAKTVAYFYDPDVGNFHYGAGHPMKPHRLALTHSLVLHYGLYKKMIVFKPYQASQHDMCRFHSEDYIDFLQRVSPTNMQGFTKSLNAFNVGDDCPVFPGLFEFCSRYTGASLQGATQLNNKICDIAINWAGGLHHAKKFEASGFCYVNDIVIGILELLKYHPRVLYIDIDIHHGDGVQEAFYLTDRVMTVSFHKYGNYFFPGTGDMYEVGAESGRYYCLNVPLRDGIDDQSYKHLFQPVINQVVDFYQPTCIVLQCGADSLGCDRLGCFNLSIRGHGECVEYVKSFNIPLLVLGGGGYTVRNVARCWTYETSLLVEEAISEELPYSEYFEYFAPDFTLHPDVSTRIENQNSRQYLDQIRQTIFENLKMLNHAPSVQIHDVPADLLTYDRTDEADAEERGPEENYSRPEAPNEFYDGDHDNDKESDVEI
Sequence of Human HDAC3/NcoR2 (Q9Y618 395-489 partner): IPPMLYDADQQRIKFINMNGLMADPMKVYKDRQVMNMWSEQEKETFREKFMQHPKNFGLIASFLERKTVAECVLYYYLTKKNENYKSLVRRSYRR
Sequence of Human HDAC6 (Q9UBN7 whole entry): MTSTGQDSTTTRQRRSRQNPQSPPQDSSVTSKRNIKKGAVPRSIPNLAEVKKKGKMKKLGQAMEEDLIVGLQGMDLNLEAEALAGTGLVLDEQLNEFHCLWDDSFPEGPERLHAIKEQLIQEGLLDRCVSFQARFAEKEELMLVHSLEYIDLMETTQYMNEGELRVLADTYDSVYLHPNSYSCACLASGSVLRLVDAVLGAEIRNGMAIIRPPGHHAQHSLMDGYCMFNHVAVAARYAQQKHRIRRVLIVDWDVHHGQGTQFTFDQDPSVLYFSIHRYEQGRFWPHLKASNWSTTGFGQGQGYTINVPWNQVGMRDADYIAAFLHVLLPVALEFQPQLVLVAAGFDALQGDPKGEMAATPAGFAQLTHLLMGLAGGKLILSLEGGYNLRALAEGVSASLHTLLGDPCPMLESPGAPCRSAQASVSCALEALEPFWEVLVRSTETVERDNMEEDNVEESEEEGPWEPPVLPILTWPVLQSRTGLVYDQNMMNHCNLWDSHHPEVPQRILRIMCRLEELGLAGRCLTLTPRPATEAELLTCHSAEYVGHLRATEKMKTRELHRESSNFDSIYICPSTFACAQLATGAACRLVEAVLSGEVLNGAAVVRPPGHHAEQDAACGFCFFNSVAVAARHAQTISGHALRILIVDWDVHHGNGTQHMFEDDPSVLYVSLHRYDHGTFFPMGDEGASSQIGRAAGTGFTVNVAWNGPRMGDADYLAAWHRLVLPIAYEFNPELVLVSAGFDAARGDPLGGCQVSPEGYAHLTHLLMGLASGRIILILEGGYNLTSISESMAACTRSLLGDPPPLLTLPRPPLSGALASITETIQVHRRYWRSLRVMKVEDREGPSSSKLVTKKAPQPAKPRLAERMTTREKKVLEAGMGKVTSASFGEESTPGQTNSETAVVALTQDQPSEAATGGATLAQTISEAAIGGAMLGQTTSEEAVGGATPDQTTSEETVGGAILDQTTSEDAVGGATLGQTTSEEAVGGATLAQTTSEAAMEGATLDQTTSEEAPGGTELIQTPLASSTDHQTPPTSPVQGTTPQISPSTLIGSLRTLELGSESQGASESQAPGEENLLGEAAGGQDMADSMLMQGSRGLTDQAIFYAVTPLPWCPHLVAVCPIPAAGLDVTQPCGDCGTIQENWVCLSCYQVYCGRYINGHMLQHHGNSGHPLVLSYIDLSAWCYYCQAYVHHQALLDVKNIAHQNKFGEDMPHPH
Sequence of Human HDAC8 (Q9BY41 whole entry): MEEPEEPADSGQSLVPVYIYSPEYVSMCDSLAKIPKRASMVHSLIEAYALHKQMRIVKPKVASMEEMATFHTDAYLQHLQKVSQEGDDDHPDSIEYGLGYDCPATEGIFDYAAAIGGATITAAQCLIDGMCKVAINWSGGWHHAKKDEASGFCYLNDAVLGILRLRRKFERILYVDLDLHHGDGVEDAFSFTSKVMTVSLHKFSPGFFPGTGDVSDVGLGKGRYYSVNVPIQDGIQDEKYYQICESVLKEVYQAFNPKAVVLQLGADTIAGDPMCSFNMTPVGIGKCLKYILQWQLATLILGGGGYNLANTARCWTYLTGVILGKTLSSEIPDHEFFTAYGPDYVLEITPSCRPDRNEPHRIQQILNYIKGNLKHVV
Sequence of Human HDAC1 (Q13547 whole entry): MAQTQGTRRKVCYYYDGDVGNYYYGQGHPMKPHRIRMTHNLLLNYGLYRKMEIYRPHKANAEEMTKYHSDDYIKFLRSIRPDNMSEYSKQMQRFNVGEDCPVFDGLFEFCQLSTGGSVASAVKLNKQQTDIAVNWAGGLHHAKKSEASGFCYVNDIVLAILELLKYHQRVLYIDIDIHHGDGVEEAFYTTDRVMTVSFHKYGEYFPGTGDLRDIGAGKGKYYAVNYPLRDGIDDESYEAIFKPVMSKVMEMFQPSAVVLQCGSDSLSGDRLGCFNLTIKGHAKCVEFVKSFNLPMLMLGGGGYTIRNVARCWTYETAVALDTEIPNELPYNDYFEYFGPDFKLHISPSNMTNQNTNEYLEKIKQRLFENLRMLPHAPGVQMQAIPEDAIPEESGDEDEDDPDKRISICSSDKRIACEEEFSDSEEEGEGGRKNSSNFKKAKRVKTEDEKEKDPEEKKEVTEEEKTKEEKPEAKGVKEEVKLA
Sequence of Human HDAC2 (Q92769 whole entry): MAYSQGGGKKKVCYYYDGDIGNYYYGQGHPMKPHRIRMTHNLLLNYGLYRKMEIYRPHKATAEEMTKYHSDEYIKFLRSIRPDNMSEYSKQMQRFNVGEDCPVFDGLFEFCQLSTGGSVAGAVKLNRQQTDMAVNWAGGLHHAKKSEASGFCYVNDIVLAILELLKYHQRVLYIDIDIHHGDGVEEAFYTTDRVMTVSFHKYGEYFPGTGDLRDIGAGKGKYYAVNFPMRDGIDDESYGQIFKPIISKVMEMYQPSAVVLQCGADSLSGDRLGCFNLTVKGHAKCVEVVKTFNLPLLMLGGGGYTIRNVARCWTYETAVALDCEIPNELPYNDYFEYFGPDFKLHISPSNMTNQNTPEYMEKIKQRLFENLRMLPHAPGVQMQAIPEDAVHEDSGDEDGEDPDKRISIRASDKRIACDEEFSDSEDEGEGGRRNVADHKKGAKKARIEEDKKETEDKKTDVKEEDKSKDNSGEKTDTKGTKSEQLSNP

Structure (SMILES) | IC50 (Human HDAC1) [nM] | melting point | IC50 (Human HDAC2) [nM] | IC50 [1] [nM] | IC50 (Human HDAC6) [nM] | IC50 [2] [nM] | IC50 (Human HDAC8) [nM] | IC50 (Human HDAC3/NcoR2) [nM] | further results
COc1cccc2c1C(=O)c1c(O)c3c(c(O)c1C2=O)C[C@@](O)(C(=O)CO)C[C@@H]3O[C@H]1C[C@H](N)[C@H](O)[C@H](C)O1 [Doxorubicin, reference compound] |  |  |  |  |  |  |  |  | pIC50 (MCF-7-FL): 5.62; pIC50 (143b): 7.06; pIC50 (SK-HEP-1): 6.78; pIC50 (BT474): 5.35; pIC50 (HT-1080): 7.59
O=c1[nH]cc(F)c(=O)[nH]1 [Example 5-FU, 5-FU, reference compound] |  |  |  |  |  |  |  |  | pIC50 (MIAPACA-2): 5.12; pIC50 (HepG2): 5.48; pIC50 (HCT-116): 5.77
O=C(NO)c1ccc(CNC(=O)c2[nH]c(-c3ccccc3)cc2-c2ccc(O)cc2)cc1 [Example 10, N-{4-[(hydroxyamino)carbonyl]benzyl}-3-(4-hydroxyphenyl)-5-phenyl-1H-pyrrole-2-carboxamide] | 473 | 139 to 141 °C | 1390 | 34 | 10.8 | 66 | 340 | 512 | 
O=C(NO)c1ccc(CNC(=O)c2[nH]c(-c3ccoc3)cc2-c2ccc(F)cc2)cc1 [Example 12, 3-(4-fluorophenyl)-5-(3-furyl)-N-{4-[(hydroxyamino)carbonyl]benzyl}-1H-pyrrole-2-carboxamide] | 384 | 162 to 164 °C | 1150 | 46.4 | 42.8 | 56 | 124 | 451 | 
COc1ccc(-c2cc(-c3ccccc3)[nH]c2C(=O)NCc2ccc(C(=O)Nc3ccccc3N)cc2)cc1 [Example 21, N-(4-{[(2-aminophenyl)amino]carbonyl}benzyl)-3-(4-methoxyphenyl)-5-phenyl-1H-pyrrole-2-carboxamide] | 390 | 142 to 143 °C (dec.) | 1260 | 7010 | > 5000 | > 10000 | > 5000 | 3900 | 
COc1ccc(-c2cc(-c3ccccc3)[nH]c2C(=O)NCc2ccc(C(=O)Nc3ccccc3S)cc2)cc1 [Example 22, 3-(4-methoxyphenyl)-5-phenyl-N-(4-{[(2-sulfanylphenyl)amino]carbonyl}benzyl)-1H-pyrrole-2-carboxamide] | > 5000 | 134 to 135 °C | > 5000 | > 5000 | > 5000 | > 10000 | > 5000 | > 5000 | 
COc1ccc(-c2cc(-c3ccccc3)[nH]c2C(=O)NCc2ccc(C(=O)Nc3ncccn3)cc2)cc1 [Example 26, 3-(4-methoxyphenyl)-5-phenyl-N-{4-[(pyrimidin-2-ylamino)carbonyl]benzyl}-1H-pyrrole-2-carboxamide] | > 5000 | 190 to 191 °C | > 5000 | > 5000 | > 5000 |  | > 5000 | > 5000 | 
CCc1c2c(nc3ccc(OC(=O)N4CCC(N5CCCCC5)CC4)cc13)-c1cc3c(c(=O)n1C2)COC(=O)[C@]3(O)CC [Irinotecan, reference compound] |  |  |  |  |  |  |  |  | pIC50 (Colo205): 4.78
CC(=O)O[C@H]1C(=O)[C@@]2(C)[C@H]([C@H](OC(=O)c3ccccc3)[C@]3(O)C[C@H](OC(=O)[C@H](O)[C@@H](NC(=O)c4ccccc4)c4ccccc4)C(C)=C1C3(C)C)[C@]1(OC(C)=O)CO[C@@H]1C[C@@H]2O [Paclitaxel, reference compound] |  |  |  |  |  |  |  |  | pIC50 (MCF-7-218): 6.55
